# Data reported in the supplement of paper PMC11424490.
# What was measured:
# NCI-H2122 = experiment: combination cScore with adagrasib (Bliss gap around IC50) (%PoC); higher = stronger additive effect
# Procedure: (§1)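 Combination screen of 179 inhibitors with the KRAS G12C inhibitor adagrasib (MRTX849) in dose matrices, CellTiter-Glo readout in NCI-H2122 (72 h), SW837 (144 h) and NCI-H358 cells. The cScore is the mean Bliss-independence gap (expected minus observed viability, in %PoC) over a 3x3 field around the IC50s of both drugs. Positive means additive, and >~10 is stated as clear additive.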
# SW837 = experiment: as above
# Procedure: as §1
Structure (SMILES),combination cScore with adagrasib (NCI-H2122),combination cScore with adagrasib (SW837)
Nc1ncn([C@H]2C[C@H](O)[C@@H](CO)O2)c(=O)n1 [Decitabine] + C=C(F)C(=O)N1CCN(c2nc(OC[C@@H]3CCCN3C)nc3c2CCN(c2cccc4cccc(Cl)c24)C3)C[C@@H]1CC#N [adagrasib],3.82,-0.47
C/C=C1\NC(=O)[C@H]2CSSCC/C=C/[C@H](CC(=O)N[C@H](C(C)C)C(=O)N2)OC(=O)[C@H](C(C)C)NC1=O [Romidepsin] + C=C(F)C(=O)N1CCN(c2nc(OC[C@@H]3CCCN3C)nc3c2CCN(c2cccc4cccc(Cl)c24)C3)C[C@@H]1CC#N [adagrasib],-1.65,6.42
Nc1ccn([C@@H]2O[C@H](CO)[C@@H](O)C2(F)F)c(=O)n1 [Gemcitabine] + C=C(F)C(=O)N1CCN(c2nc(OC[C@@H]3CCCN3C)nc3c2CCN(c2cccc4cccc(Cl)c24)C3)C[C@@H]1CC#N [adagrasib],-4.78,-2.8
COc1cc(OC2CCN(C)CC2)ccc1Nc1ncc2c(n1)n(C1CCCC1)c(=O)n2C [AZ3146] + C=C(F)C(=O)N1CCN(c2nc(OC[C@@H]3CCCN3C)nc3c2CCN(c2cccc4cccc(Cl)c24)C3)C[C@@H]1CC#N [adagrasib],-1.25,9.79
O=[N+]([O-])c1ccc(NCCNc2ncc(-c3ncc[nH]3)c(-c3ccc(Cl)cc3Cl)n2)nc1 + C=C(F)C(=O)N1CCN(c2nc(OC[C@@H]3CCCN3C)nc3c2CCN(c2cccc4cccc(Cl)c24)C3)C[C@@H]1CC#N [adagrasib],-12.7,5.65
CN1CC[C@H](c2c(O)cc(O)c3c(=O)cc(-c4ccccc4Cl)oc23)[C@H](O)C1 [Flavopiridol] + C=C(F)C(=O)N1CCN(c2nc(OC[C@@H]3CCCN3C)nc3c2CCN(c2cccc4cccc(Cl)c24)C3)C[C@@H]1CC#N [adagrasib],-0.29,2.43
CC1=C(/C=C/C(C)=C/C=C/C(C)=C/C(=O)O)C(C)(C)CCC1 [Tretinoin] + C=C(F)C(=O)N1CCN(c2nc(OC[C@@H]3CCCN3C)nc3c2CCN(c2cccc4cccc(Cl)c24)C3)C[C@@H]1CC#N [adagrasib],-2.19,2.87
CC(C)(C)c1ccc(S(=O)(=O)NCc2ccc(C(=O)Nc3cccnc3)cc2)cc1 [STF-31] + C=C(F)C(=O)N1CCN(c2nc(OC[C@@H]3CCCN3C)nc3c2CCN(c2cccc4cccc(Cl)c24)C3)C[C@@H]1CC#N [adagrasib],-2.08,10.7
COc1cc2c(NC3CCN(C(C)C)CC3)nc(C3CCCCC3)nc2cc1OCCCN1CCCC1 [UNC0638] + C=C(F)C(=O)N1CCN(c2nc(OC[C@@H]3CCCN3C)nc3c2CCN(c2cccc4cccc(Cl)c24)C3)C[C@@H]1CC#N [adagrasib],5.77,13.2
COc1cc2c(Oc3ccc4[nH]c(C)cc4c3F)ncnc2cc1OCCCN1CCCC1 [Cediranib] + C=C(F)C(=O)N1CCN(c2nc(OC[C@@H]3CCCN3C)nc3c2CCN(c2cccc4cccc(Cl)c24)C3)C[C@@H]1CC#N [adagrasib],-4.17,-0.83
CO[C@@]12[C@H](COC(N)=O)C3=C(C(=O)C(C)=C(N)C3=O)N1C[C@@H]1N[C@@H]12 [Mitomycin C] + C=C(F)C(=O)N1CCN(c2nc(OC[C@@H]3CCCN3C)nc3c2CCN(c2cccc4cccc(Cl)c24)C3)C[C@@H]1CC#N [adagrasib],0.77,-3.24
CC(=O)[C@]1(O)Cc2c(O)c3c(c(O)c2[C@@H](O[C@H]2C[C@H](N)[C@H](O)[C@H](C)O2)C1)C(=O)c1ccccc1C3=O [Idarubicin] + C=C(F)C(=O)N1CCN(c2nc(OC[C@@H]3CCCN3C)nc3c2CCN(c2cccc4cccc(Cl)c24)C3)C[C@@H]1CC#N [adagrasib],4.03,2.73
COc1ncc(-c2nc3c(n2C(C)C)[C@H](c2ccc(Cl)cc2)N(c2cc(Cl)cn(C)c2=O)C3=O)c(OC)n1 [HDM-201] + C=C(F)C(=O)N1CCN(c2nc(OC[C@@H]3CCCN3C)nc3c2CCN(c2cccc4cccc(Cl)c24)C3)C[C@@H]1CC#N [adagrasib],1.48,3.06
C=C(c1ccc(C(=O)O)cc1)c1cc2c(cc1C)C(C)(C)CCC2(C)C [Bexarotene] + C=C(F)C(=O)N1CCN(c2nc(OC[C@@H]3CCCN3C)nc3c2CCN(c2cccc4cccc(Cl)c24)C3)C[C@@H]1CC#N [adagrasib],-4.01,0.535
CCN(CC)CCNC(=O)c1c(C)[nH]c(/C=C2\C(=O)Nc3ccc(F)cc32)c1C [Sunitinib] + C=C(F)C(=O)N1CCN(c2nc(OC[C@@H]3CCCN3C)nc3c2CCN(c2cccc4cccc(Cl)c24)C3)C[C@@H]1CC#N [adagrasib],1.03,4.56
Nc1nc2[nH]cc(CCc3ccc(C(=O)N[C@@H](CCC(=O)O)C(=O)O)cc3)c2c(=O)[nH]1 [Pemetrexed] + C=C(F)C(=O)N1CCN(c2nc(OC[C@@H]3CCCN3C)nc3c2CCN(c2cccc4cccc(Cl)c24)C3)C[C@@H]1CC#N [adagrasib],2.77,5.08
COc1cc(OC)c(/C=C/S(=O)(=O)Cc2ccc(OC)c(NCC(=O)O)c2)c(OC)c1 [Rigosertib] + C=C(F)C(=O)N1CCN(c2nc(OC[C@@H]3CCCN3C)nc3c2CCN(c2cccc4cccc(Cl)c24)C3)C[C@@H]1CC#N [adagrasib],1.67,7.78
COc1cc2nccc(Oc3ccc(NC(=O)C4(C(=O)Nc5ccc(F)cc5)CC4)cc3)c2cc1OC [XL-184] + C=C(F)C(=O)N1CCN(c2nc(OC[C@@H]3CCCN3C)nc3c2CCN(c2cccc4cccc(Cl)c24)C3)C[C@@H]1CC#N [adagrasib],4.53,9.25
CC(C)(C(=O)NCC(F)(F)C(F)(F)F)C(=O)N[C@@H]1C(=O)Nc2ccccc2-c2ccccc21 + C=C(F)C(=O)N1CCN(c2nc(OC[C@@H]3CCCN3C)nc3c2CCN(c2cccc4cccc(Cl)c24)C3)C[C@@H]1CC#N [adagrasib],6.57,9.86
N.N.[Cl][Pt][Cl] [Cisplatin] + C=C(F)C(=O)N1CCN(c2nc(OC[C@@H]3CCCN3C)nc3c2CCN(c2cccc4cccc(Cl)c24)C3)C[C@@H]1CC#N [adagrasib],-1.07,-1.26
N[C@H]1CC[C@H](N[C@@H]2C[C@H]2c2ccccc2)CC1 [ORY-1001] + C=C(F)C(=O)N1CCN(c2nc(OC[C@@H]3CCCN3C)nc3c2CCN(c2cccc4cccc(Cl)c24)C3)C[C@@H]1CC#N [adagrasib],-4.53,2.12
CC(O)(CS(=O)(=O)c1ccc(F)cc1)C(=O)Nc1ccc(C#N)c(C(F)(F)F)c1 (centres undefined) [Bicalutamide] + C=C(F)C(=O)N1CCN(c2nc(OC[C@@H]3CCCN3C)nc3c2CCN(c2cccc4cccc(Cl)c24)C3)C[C@@H]1CC#N [adagrasib],4.44,2.23
O=C(/C=C\n1cnc(-c2cc(C(F)(F)F)cc(C(F)(F)F)c2)n1)NNc1cnccn1 [KPT-330] + C=C(F)C(=O)N1CCN(c2nc(OC[C@@H]3CCCN3C)nc3c2CCN(c2cccc4cccc(Cl)c24)C3)C[C@@H]1CC#N [adagrasib],8.01,3.48
O=C(O)c1nn(Cc2ccc(Cl)cc2Cl)c2ccccc12 [Lonidamine] + C=C(F)C(=O)N1CCN(c2nc(OC[C@@H]3CCCN3C)nc3c2CCN(c2cccc4cccc(Cl)c24)C3)C[C@@H]1CC#N [adagrasib],-1.92,-1.95
COC(=O)c1ccc2c(c1)NC(=O)/C2=C(\Nc1ccc(N(C)C(=O)CN2CCN(C)CC2)cc1)c1ccccc1 [Nintedanib] + C=C(F)C(=O)N1CCN(c2nc(OC[C@@H]3CCCN3C)nc3c2CCN(c2cccc4cccc(Cl)c24)C3)C[C@@H]1CC#N [adagrasib],7.6,4.49
Cc1cn(-c2cc(NC(=O)c3ccc(C)c(Nc4nccc(-c5cccnc5)n4)c3)cc(C(F)(F)F)c2)cn1 [Nilotinib] + C=C(F)C(=O)N1CCN(c2nc(OC[C@@H]3CCCN3C)nc3c2CCN(c2cccc4cccc(Cl)c24)C3)C[C@@H]1CC#N [adagrasib],10.6,9.6
CC[C@]1(O)C[C@@H]2CN(CCc3c([nH]c4ccccc34)[C@@](C(=O)OC)(c3cc4c(cc3OC)N(C)[C@H]3[C@@](O)(C(=O)OC)[C@H](OC(C)=O)[C@]5(CC)C=CCN6CC[C@]43[C@@H]65)C2)C1 [Vinblastine] + C=C(F)C(=O)N1CCN(c2nc(OC[C@@H]3CCCN3C)nc3c2CCN(c2cccc4cccc(Cl)c24)C3)C[C@@H]1CC#N [adagrasib],-3.66,4.5
